Assay results: patent publication US20260083851A1 (AVILAR THERAPEUTICS, INC., priority 2022, published 2026)

target: T1, ASGP receptor (biotinylated ASGPR) (Homo sapiens, UniProt P07306); assay type: binding; conditions: SPR, Biacore 8K, 25° C.; Table 1A; read-out: ASGPR KD
T1 construct: biotin (biotinylated)
T1 sequence (P07306 1-291): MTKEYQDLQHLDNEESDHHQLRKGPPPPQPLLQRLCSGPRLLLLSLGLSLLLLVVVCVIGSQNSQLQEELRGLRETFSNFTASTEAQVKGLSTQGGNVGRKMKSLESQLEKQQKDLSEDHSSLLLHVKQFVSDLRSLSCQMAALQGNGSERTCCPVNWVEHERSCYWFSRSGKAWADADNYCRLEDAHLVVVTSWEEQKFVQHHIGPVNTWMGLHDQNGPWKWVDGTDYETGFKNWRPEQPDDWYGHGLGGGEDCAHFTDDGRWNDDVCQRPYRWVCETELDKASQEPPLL

Kd | SMILES
< 10 µM | O=C(O)COCCOCC(=O)NC[C@H]1OC[C@H](Nc2ccnc(C(F)(F)F)c2)[C@@H](O)[C@H]1O [A107, 2-(2-(2-((((2R,3R,4R,5S)-3,4-dihydroxy-5-((2-(trifluoromethyl)pyridin-4-yl)amino)tetrahydro-2H-pyran-2-yl)methyl)amino)-2-oxoethoxy)ethoxy)acetic acid]
< 10 µM | O[C@@H]1[C@H](O)[C@@H](Nc2cncc(C(F)(F)F)n2)CO[C@@H]1CNc1cccnn1 [A37, (2R,3R,4R,5S)-2-((pyridazin-3-ylamino)methyl)-5-((6-(trifluoromethyl)pyrazin-2-yl)amino)tetrahydro-2H-pyran-3,4-diol]
< 10 µM | O[C@@H]1[C@H](O)[C@@H](Nc2cncc(C(F)(F)F)n2)CO[C@@H]1CNc1ccnnc1 [A41, (2R,3R,4R,5S)-2-((pyridazin-4-ylamino)methyl)-5-((6-(trifluoromethyl)pyrazin-2-yl)amino)tetrahydro-2H-pyran-3,4-diol]
< 10 µM | O=C(NC[C@H]1OC[C@H](Nc2cncc(C(F)(F)F)n2)[C@@H](O)[C@H]1O)c1cc(C(F)(F)F)n[nH]1 [A29, N-(((2R,3R,4R,5S)-3,4-dihydroxy-5-((6-(trifluoromethyl)pyrazin-2-yl)amino)tetrahydro-2H-pyran-2-yl)methyl)-3-(trifluoromethyl)-1H-pyrazole-5-carboxamide]
< 10 µM | O=C(NC[C@H]1OC[C@H](Nc2cncc(C(F)(F)F)n2)[C@@H](O)[C@H]1O)c1ccc2c(n1)CCNC2 [A77, N-(((2R,3R,4R,5S)-3,4-dihydroxy-5-((6-(trifluoromethyl)pyrazin-2-yl)amino)tetrahydro-2H-pyran-2-yl)methyl)-5,6,7,8-tetrahydro-1,6-naphthyridine-2-carboxamide]
< 10 µM | NC[C@H]1OC[C@H](Nc2nc(C(F)(F)F)ccc2F)[C@@H](O)[C@H]1O [A99, (2R,3R,4R,5S)-2-(aminomethyl)-5-((3-fluoro-6-(trifluoromethyl)pyridin-2-yl)amino)tetrahydro-2H-pyran-3,4-diol]
< 10 µM | O=C(NC[C@H]1OC[C@H](Nc2cncc(C(F)(F)F)n2)[C@@H](O)[C@H]1O)C12CC3CC(CC(C3)C1)C2 [A15, (1S,3S)—N-(((2R,3R,4R,5S)-3,4-dihydroxy-5-((6-(trifluoromethyl)pyrazin-2-yl)amino)tetrahydro-2H-pyran-2-yl)methyl)adamantane-1-carboxamide]
< 10 µM | OC[C@H]1NC[C@H](Nc2nccc(C(F)(F)F)n2)[C@@H](O)[C@H]1O [A117]
< 10 µM | O=C(NC[C@H]1OC[C@H](Nc2cncc(C(F)(F)F)n2)[C@@H](O)[C@H]1O)c1cnc[nH]1 [A22, N-(((2R,3R,4R,5S)-3,4-dihydroxy-5-((6-(trifluoromethyl)pyrazin-2-yl)amino)tetrahydro-2H-pyran-2-yl)methyl)-1H-imidazole-5-carboxamide]

same assay, conditions: SPR, Biacore 8K, 25° C.; Table 1B, numeric bound; read-out: ASGPR Kd

Kd | SMILES
> 30 µM | OC[C@H]1OC[C@H](NC2CCC2)[C@@H](O)[C@H]1O [A166, (2R,3R,4R,5S)-5-(cyclobutylamino)-2-(hydroxymethyl)tetrahydro-2H-pyran-3,4-diol]

same assay, conditions: SPR, Biacore 8K, 25° C.; Table 1B; read-out: ASGPR Kd

Kd | SMILES
< 10 µM | C[C@H]1OC[C@H](Nc2cncc(C(F)(F)F)n2)[C@@H](O)[C@H]1O [A155, (2R,3R,4R,5S)-2-methyl-5-((6-(trifluoromethyl)pyrazin-2-yl)amino)tetrahydro-2H-pyran-3,4-diol]
< 10 µM | NCc1ccc(N2CCC(CN3CCN(C[C@H]4OC[C@H](Nc5cncc(C(F)(F)F)n5)[C@@H](O)[C@H]4O)CC3)CC2)cc1 [A165, (2R,3R,4R,5S)-2-((4-((1-(4-(aminomethyl)phenyl)piperidin-4-yl)methyl)piperazin-1-yl)methyl)-5-((6-(trifluoromethyl)pyrazin-2-yl)amino)tetrahydro-2H-pyran-3,4-diol]

same assay, conditions: SPR, Biacore 8K, 25° C.; Table 1C; read-out: ASGPR KD

Kd | SMILES
< 10 µM | O=C(O)c1ccc(OC[C@@]23CO[C@@H](O2)[C@H](Nc2cncc(C(F)(F)F)n2)[C@@H](O)[C@H]3O)nn1 [A281]
< 10 µM | CC(C)(C)OC(=O)N1CCC2CN(C[C@H]3OC[C@H](Oc4cccc(C(F)(F)F)n4)[C@@H](O)[C@H]3O)CC2C1 (some centres unmarked) [A271]
< 10 µM | CC[C@H]1O[C@H](C)[C@H](O)[C@H](O)[C@H]1Oc1cccc(C(F)(F)F)n1 [A316]
< 10 µM | C[C@H]1O[C@H](c2ccccc2)[C@H](Oc2cccc(C(F)(F)F)n2)[C@@H](O)[C@H]1O [A252]
< 10 µM | O=C(O)c1c(F)cc(CN2CCN(C[C@H]3OC[C@H](Nc4cncc(C(F)(F)F)n4)[C@@H](O)[C@H]3O)CC2)cc1F [A251]
< 10 µM | C[C@H]1O[C@H](C#CCOc2ccc(C(=O)O)nn2)[C@H](Oc2cccc(C(F)(F)F)n2)[C@@H](O)[C@H]1O [A322]
< 10 µM | C[C@H]1O[C@@H](c2ccc3ccccc3n2)[C@H](Oc2cccc(C(F)(F)F)n2)[C@@H](O)[C@H]1O [A344]
< 10 µM | O[C@@H]1[C@H](O)[C@@H](Nc2cccc(C(F)(F)F)n2)CO[C@@H]1COc1ccc(-c2ccccc2)cc1 [A196, (2R,3R,4R,5S)-2-(([1,1′-biphenyl]-4-yloxy)methyl)-5-((6-(trifluoromethyl)pyridin-2-yl)amino)tetrahydro-2H-pyran-3,4-diol]
< 10 µM | O=C(O)c1ccc(-c2ccc(OC[C@H]3OC[C@H](Oc4cccc(C(F)(F)F)n4)[C@@H](O)[C@H]3O)cc2)nn1 [A221, 6-(4-(((2R,3R,4S,5S)-3,4-dihydroxy-5-((6-(trifluoromethyl)pyridin-2-yl)oxy)tetrahydro-2H-pyran-2-yl)methoxy)phenyl)pyridazine-3-carboxylic acid]
< 10 µM | O=C(c1ccc(Cl)cc1)[C@H]1OC[C@H](Oc2cccc(C(F)(F)F)n2)[C@@H](O)[C@H]1O [A299]
< 10 µM | O[C@@H]1[C@H](O)[C@@H](Oc2cccc(C(F)(F)F)n2)CO[C@@H]1CN1CCN(c2cccnc2)CC1 [A275]
< 10 µM | CN1CC2CN(C[C@H]3OC[C@H](Oc4cccc(C(F)(F)F)n4)[C@@H](O)[C@H]3O)CCN2C1=O (some centres unmarked) [A302]
< 10 µM | O[C@@H]1[C@H](O)[C@@H](Oc2cccc(C(F)(F)F)n2)CO[C@@H]1CN1CCN(c2cccnn2)CC1 [A264]

same assay, conditions: SPR, Biacore 8K, 25° C.; Table 1D, numeric bound; read-out: ASGPR KD

Kd | SMILES
> 30 µM | O=C(OCc1ccccc1)N1C[C@H](O)[C@H](O)[C@@H]([S@+]([O-])c2cccc(C(F)(F)F)n2)C1 [A355]
> 30 µM | CN1C[C@H](Nc2ccc(C(F)(F)F)cn2)[C@@H](O)[C@@H](O)C1 [A368]

same assay, conditions: SPR, Biacore 8K, 25° C.; Table 1D; read-out: ASGPR KD

Kd | SMILES
< 10 µM | O[C@@H]1[C@H](O)[C@@H](Oc2cncc(C(F)(F)F)n2)CO[C@@H]1COc1ncccn1 [A417]
< 10 µM | O=C(O)c1ccc(-c2ccc(C(=O)N3C[C@H](Nc4cncc(C(F)(F)F)n4)[C@@H](O)[C@@H](O)C3)cc2)cc1 [A383]
< 10 µM | O=C(c1ccc(C(F)(F)F)cn1)N1C[C@H](Nc2cncc(C(F)(F)F)n2)[C@@H](O)[C@@H](O)C1 [A378]
< 10 µM | O[C@@H]1[C@@H](Nc2cccc(C(F)(F)F)n2)CN(C2CCNCC2)C[C@@H]1O [A396]
10 to 100 µM | C#CCOc1nc(N[C@H]2CO[C@H](CO)[C@H](O)[C@@H]2O)cc(C(F)(F)F)n1 [A402]
< 10 µM | O=C(c1ccc(-c2ccccc2)cc1)N1C[C@H](Nc2cncc(C(F)(F)F)n2)[C@@H](O)[C@@H](O)C1 [A376]

same assay, conditions: SPR, Biacore 8K, 25° C.; Table 1E; read-out: ASGPR KD

Kd | SMILES
< 10 µM | C[C@H]1O[C@H](COc2ncccn2)[C@H](Oc2cccc(C(F)(F)F)n2)[C@@H](O)[C@H]1O [A447]
< 10 µM | C[C@H]1O[C@H](C2=CC3C(C2=O)[C@H]2CC[C@@H]3C2)[C@H](Oc2cccc(C(F)(F)F)n2)[C@@H](O)[C@H]1O (some centres unmarked) [A435B]
